{"source": "patent US11767307B2", "about": "“Litter for promoting pet's in-litter elimination” (SPECIALITES PET FOOD, priority 2018, dated 2023)", "key": {"cat elimination behavior": {"tested_on": "cat elimination behavior", "experiment": "Two-litter-box test of cat elimination behavior (deposits weight in litter)", "type": "in vivo, cats", "conditions": "measured on non-soiled litters the first day of use", "source_text": "(§1) Twenty cats in 5 living rooms (4 cats per room) were involved in the study. The study lasted 4 days and two litter boxes containing two different products, i.e. a control cat litter (Litter 1, non-clumping clay) and an experimental cat litter (Litter 2) sprayed with 0.1% of composition A according to Example 1, were presented to the cats.\nDiet was controlled for each test by measuring food intake. The temperature of the rooms was controlled. In each room, an equal proportion of males/females was respected.\nas §1, with “study. Two” for “study. The study lasted 4 days and two”, “(Litter 3,” for “(Litter 1,”, “(Litter 4)” for “(Litter 2)”, “composition B” for “composition A”"}, "cats": {"tested_on": "cats", "conditions": "21 commercial cat attractants tested; cited from earlier work"}}, "data": [{"smiles": "CC1(C)OCC(CO)O1", "note": "(centres unmarked) [composition A, 2,2-dimethyl-1,3-dioxolane-4-methanol]", "values": [{"measurement": "in-litter cat elimination promoting (attractant) effect", "setting": "cat elimination behavior", "value": "in-litter cat elimination promoting (or attractant) effect"}]}, {"smiles": "CC(C)(CCO)SC[C@H](N)C(=O)O", "note": "[L-Felinine]", "values": [{"measurement": "preference by cats for urine elimination versus control", "setting": "cats", "value": "significantly preferred"}]}]}
